Test system: retinal ganglion cells
Experiment: Hypotonic swelling-induced calcium influx in retinal ganglion cells (Fura-2)
Format: cell-based
Excerpt: Cells were labeled with fluorescent calcium indicator dye Fura-2 and exposed to hypotonic solutions in which extracellular sodium was replaced by the osmotically inert substance mannitol, as described in […] et al. (J. Neurosci. 2011 May 11; 31(19):7089-101; PMID 21562271).

Compound: Cc1c(C(=O)Nc2cccc(C(F)(F)F)c2)cc(-c2ccccc2)n1CCCN1CCOCC1 [Compound 1, N-(3-(trifluoromethyl)phenyl)-2-methyl-1-(3-morpholinopropyl)-5-phenyl-1H-pyrrole-3-carboxamide]
- effect of cell swelling on intracellular calcium levels in ganglion cells (140 mOsm saline): blocked
- pressure-dependent influx of calcium in RGCs (FIG. 17C) (hypotonic solutions): prevents the pressure-dependent influx of calcium in RGCs
